Data as given in article PMC5656653, “Evaluation of Ga-DOTA-(D-Asp)n as bone imaging agents: D-aspartic acid peptides as carriers to bone” (Scientific Reports, 2017).
“Also recorded” adds a separate entry of the source. Where a SMILES comes first, the peptide text is derived from it. [ ]: non-standard residue; d: D form. The star is where a group is joined. DOTA = O=C(O)CN1CCN(CC(=O)O)CCN(CC(=O)*)CCN(CC(=O)O)CC1

Test: Biodistribution experiments in normal mice after i.v. injection
Assay type: in vivo
Conditions: for Biodistribution of radioactivity, Blood / Biodistribution of radioactivity, Bone (Femur) / Biodistribution of radioactivity, Brain / Biodistribution of radioactivity, Heart / Biodistribution of radioactivity, Kidney / Biodistribution of radioactivity, Large-intestine / Biodistribution of radioactivity, Liver / Biodistribution of radioactivity, Lung / Biodistribution of radioactivity, Muscle / Biodistribution of radioactivity, Pancreas / Biodistribution of radioactivity, Small-intestine / Biodistribution of radioactivity, Spleen / F/B ratio (Femur:blood ratio) / Biodistribution of radioactivity, Stomach: mice, mean (SD); for Biodistribution of radioactivity, Stomach: footnote b; for tissue uptake dose at 10 min / tissue uptake dose at 1 h / tissue uptake dose at 3 h: male, ddY, total radioactivity, Biodistribution of radioactivity
Procedure: Experiments with animals were conducted in strict accordance with the Guidelines for the Care and Use of Laboratory Animals of Kanazawa University. The animal experimental protocols used were approved by the Committee on Animal Experimentation of Kanazawa University (Permit Number: AP-132633). Biodistribution experiments were performed after intravenous administration of each diluted tracer solution (37–740 kBq/100 μL) to 6-week-old male ddY mice (27–32 g, Japan SLC, Inc., Hamamatsu, Japan). Four or five mice at each time point after the administration of each compound were sacrificed by decapitation at 10, 60, and 180 min post-injection. Tissues of interest were taken and weighed. Complete left femurs were isolated as representative bone samples, radioactivity was determined using gamma counters (AccuFLEX γ ARC-8001 in the case of ^18F, Hitachi, Ltd.), and background counts and physical decay were corrected during counting.

[1] = mouse, in vivo, iv, Bone (Femur)
[2] = mouse, in vivo, iv, Large-intestine
[3] = mouse, in vivo, iv, Small-intestine

[18F-].[Na+] [[^18F]NaF, reference compound]
Biodistribution of radioactivity, Blood (i.v., 10 min after injection): 1.78 (0.23) % injected dose | Biodistribution of radioactivity, Bone (Femur) (i.v., 10 min after injection): 27.69 (3.15) % injected dose | Biodistribution of radioactivity, Brain (i.v., 10 min after injection): 0.10 (0.02) % injected dose | Biodistribution of radioactivity, Heart (i.v., 10 min after injection): 1.84 (0.41) % injected dose | Biodistribution of radioactivity, Kidney (i.v., 10 min after injection): 5.23 (2.31) % injected dose | Biodistribution of radioactivity, Large-intestine (i.v., 10 min after injection): 0.95 (0.22) % injected dose | Biodistribution of radioactivity, Liver (i.v., 10 min after injection): 1.34 (0.17) % injected dose | Biodistribution of radioactivity, Lung (i.v., 10 min after injection): 1.44 (0.19) % injected dose | Biodistribution of radioactivity, Muscle (i.v., 10 min after injection): 0.83 (0.13) % injected dose | Biodistribution of radioactivity, Pancreas (i.v., 10 min after injection): 0.87 (0.15) % injected dose | Biodistribution of radioactivity, Small-intestine (i.v., 10 min after injection): 1.31 (0.22) % injected dose | Biodistribution of radioactivity, Spleen (i.v., 10 min after injection): 1.10 (0.15) % injected dose | F/B ratio (Femur:blood ratio) (i.v., 10 min after injection): 15.59 (1.01) | Biodistribution of radioactivity, Stomach (i.v., 10 min after injection): 0.36 (0.04) % injected dose | Biodistribution of radioactivity, Blood (i.v., 60 min after injection): 0.11 (0.04) % injected dose | Biodistribution of radioactivity, Bone (Femur) (i.v., 60 min after injection): 39.96 (2.52) % injected dose | Biodistribution of radioactivity, Brain (i.v., 60 min after injection): 0.36 (0.52) % injected dose | Biodistribution of radioactivity, Heart (i.v., 60 min after injection): 0.15 (0.05) % injected dose | Biodistribution of radioactivity, Kidney (i.v., 60 min after injection): 1.13 (0.89) % injected dose | Biodistribution of radioactivity, Large-intestine (i.v., 60 min after injection): 1.21 (0.27) % injected dose | Biodistribution of radioactivity, Liver (i.v., 60 min after injection): 0.09 (0.02) % injected dose | Biodistribution of radioactivity, Lung (i.v., 60 min after injection): 0.10 (0.03) % injected dose | Biodistribution of radioactivity, Muscle (i.v., 60 min after injection): 0.07 (0.04) % injected dose | Biodistribution of radioactivity, Pancreas (i.v., 60 min after injection): 0.08 (0.08) % injected dose | Biodistribution of radioactivity, Small-intestine (i.v., 60 min after injection): 0.68 (0.10) % injected dose | Biodistribution of radioactivity, Spleen (i.v., 60 min after injection): 0.08 (0.02) % injected dose | F/B ratio (Femur:blood ratio) (i.v., 60 min after injection): 381.63 (84.17) | Biodistribution of radioactivity, Stomach (i.v., 60 min after injection): 0.06 (0.02) % injected dose | Biodistribution of radioactivity, Blood (i.v., 180 min after injection): 0.02 (0.00) % injected dose | Biodistribution of radioactivity, Bone (Femur) (i.v., 180 min after injection): 43.91 (2.64) % injected dose | Biodistribution of radioactivity, Brain (i.v., 180 min after injection): 0.05 (0.02) % injected dose | Biodistribution of radioactivity, Heart (i.v., 180 min after injection): 0.02 (0.01) % injected dose | Biodistribution of radioactivity, Kidney (i.v., 180 min after injection): 0.15 (0.08) % injected dose | Biodistribution of radioactivity, Large-intestine (i.v., 180 min after injection): 1.39 (0.19) % injected dose | Biodistribution of radioactivity, Liver (i.v., 180 min after injection): 0.02 (0.00) % injected dose | Biodistribution of radioactivity, Lung (i.v., 180 min after injection): 0.03 (0.01) % injected dose | Biodistribution of radioactivity, Muscle (i.v., 180 min after injection): 0.01 (0.01) % injected dose | Biodistribution of radioactivity, Pancreas (i.v., 180 min after injection): 0.02 (0.03) % injected dose | Biodistribution of radioactivity, Small-intestine (i.v., 180 min after injection): 0.06 (0.02) % injected dose | Biodistribution of radioactivity, Spleen (i.v., 180 min after injection): 0.02 (0.00) % injected dose | F/B ratio (Femur:blood ratio) (i.v., 180 min after injection): 1983.88 (256.88) | Biodistribution of radioactivity, Stomach (i.v., 180 min after injection): 0.13 (0.14) % injected dose | Accumulation of radioactivity in bone (in words) (normal mice, i.v.): high accumulation and retention of radioactivity in bone; also recorded: highest bone uptake

O=C(O)C[C@@H](NC(=O)[C@@H](CC(=O)O)NC(=O)CN1CCN(CC(=O)O)CCN(CC(=O)O)CCN(CC(=O)O)CC1)C(=O)O [^67Ga-DOTA-(D-Asp)2, metal not drawn] ({DOTA}-[dD]-[dD]-OH)
tissue uptake dose at 10 min (mouse, in vivo, iv, Blood): 2.19 %ID | tissue uptake dose at 1 h (mouse, in vivo, iv, Blood): 0.24 %ID | tissue uptake dose at 3 h (mouse, in vivo, iv, Blood): 0.05 %ID | tissue uptake dose at 10 min [1]: 1.57 %ID | tissue uptake dose at 1 h [1]: 0.88 %ID | tissue uptake dose at 3 h [1]: 0.49 %ID | tissue uptake dose at 10 min (mouse, in vivo, iv, Brain): 0.07 %ID | tissue uptake dose at 1 h (mouse, in vivo, iv, Brain): 0.02 %ID | tissue uptake dose at 3 h (mouse, in vivo, iv, Brain): 0.01 %ID | tissue uptake dose at 10 min (mouse, in vivo, iv, Heart): 0.86 %ID | tissue uptake dose at 1 h (mouse, in vivo, iv, Heart): 0.11 %ID | tissue uptake dose at 3 h (mouse, in vivo, iv, Heart): 0.06 %ID | tissue uptake dose at 10 min (mouse, in vivo, iv, Kidney): 7.61 %ID | tissue uptake dose at 1 h (mouse, in vivo, iv, Kidney): 6.33 %ID | tissue uptake dose at 3 h (mouse, in vivo, iv, Kidney): 1.42 %ID | tissue uptake dose at 10 min [2]: 0.37 %ID | tissue uptake dose at 1 h [2]: 0.12 %ID | tissue uptake dose at 3 h [2]: 0.38 %ID | tissue uptake dose at 10 min (mouse, in vivo, iv, Liver): 0.57 %ID | tissue uptake dose at 1 h (mouse, in vivo, iv, Liver): 0.31 %ID | tissue uptake dose at 3 h (mouse, in vivo, iv, Liver): 0.11 %ID | tissue uptake dose at 10 min (mouse, in vivo, iv, Lung): 1.45 %ID | tissue uptake dose at 1 h (mouse, in vivo, iv, Lung): 0.26 %ID | tissue uptake dose at 3 h (mouse, in vivo, iv, Lung): 0.08 %ID | tissue uptake dose at 10 min (mouse, in vivo, iv, Muscle): 0.53 %ID | tissue uptake dose at 1 h (mouse, in vivo, iv, Muscle): 0.11 %ID | tissue uptake dose at 3 h (mouse, in vivo, iv, Muscle): 0.08 %ID | tissue uptake dose at 10 min (mouse, in vivo, iv, Pancreas): 0.57 %ID | tissue uptake dose at 1 h (mouse, in vivo, iv, Pancreas): 0.15 %ID | tissue uptake dose at 3 h (mouse, in vivo, iv, Pancreas): 0.09 %ID | tissue uptake dose at 10 min [3]: 0.5 %ID | tissue uptake dose at 1 h [3]: 0.14 %ID | tissue uptake dose at 3 h [3]: 0.08 %ID | tissue uptake dose at 10 min (mouse, in vivo, iv, Spleen): 0.5 %ID | tissue uptake dose at 1 h (mouse, in vivo, iv, Spleen): 0.24 %ID | tissue uptake dose at 3 h (mouse, in vivo, iv, Spleen): 0.08 %ID | tissue uptake dose at 10 min (mouse, in vivo, iv, Stomach): 0.24 %ID | tissue uptake dose at 1 h (mouse, in vivo, iv, Stomach): 0.06 %ID | tissue uptake dose at 3 h (mouse, in vivo, iv, Stomach): 0.36 %ID | Accumulation of radioactivity in bone (in words) (mouse, in vivo, iv): subtle accumulation of radioactivity in bone
